Reference: US20250041278A1, “TLR8 AGONIST FOR MODULATING IMMUNE RESPONSE” (The Children's Medical Center Corporation, priority 2021, published 2025)

Key:
Format in all cases: cell-based
[1] = target: T1, hTLR2 (Homo sapiens, UniProt O60603); assay: HEK hTLR2 NF-κB SEAP reporter assay; conditions: even at higher concentrations
T1 construct: expressed in transfected cells; host or cells: HEK reporter cells
Method: FIGS. 3A-3E. PVP-179 is a TLR8 agonist. FIG. 3A: PVP-179 was sent to InvivoGen for PRR ligand screening service. Various cells lines were utilized to screen for PVP-179-induced ([…]) activation of TLRs, NOD1/2, RIG-I/MDA-5, Dectin-1 or Mincle receptor. The heat-map depicts percentage activity compared to the positive control for each receptor. FIG. 3B: PVP-179 induced activity (% activity compared to the positive control: CL075 at 1 μg/mL) in HEK-293 cells specifically expressing hTLR8. In brief, these cells have an NF-κB/AP-1-inducible secreted embryonic alkaline phosphatase (SEAP) reporter gene which allows monitoring of signaling via TLR8. After incubation for 16-24 hours, supernatant harvested from the cells is mixed with media containing SEAP-substrate and the optical density (OD) is measured at 650 nm using a spectrophotometer. FIG. 3C: As in FIG. 3B, HEK cells specifically expressing hTLR2, hTLR7, or hTLR8, in addition to the HEK-Null cell line carrying only the reporter gene, were stimulated with the indicated concentrations of PVP-179. […] PVP-179 activity is expressed as a percentage of NF-κB induced in the cells stimulated with TNF (positive control for each cell line). […] The supernatants were harvested after 20-24 hours and SEAP production (to assess NF-κB activity) was measured using QUANTIBlue assay. […]

[2] = test system: human adult and elderly PBMCs; assay: TNF ELISA in human adult or elderly PBMCs, 96-well format; conditions: stimulated for 24 hours
Text: FIGS. 1A-1D. Discovery of PVP-179 in a human PBMC high-throughput screen. FIG. 1A: A graphical overview depicting screen approach. From a high-throughput screen previously conducted, 310 molecules were identified to be activators of either THP-1 cells (monocyte cell line) or primary human adult peripheral blood mononuclear cells (PBMCs). These 310 molecules were assembled into a stimulation plate and then applied to the PBMCs of 4 elderly donors (cultured with 10% autologous plasma). […] Z scores were averaged across all four elderly donors. The Z score and chemical structure for PVP-179 are indicated. FIG. 1C: Human adult or elderly PBMCs (cultured with 10% autologous plasma) were stimulated with PVP-179 in a two-point concentration titration manner. […] N=4 donors. FIG. 1D: As in FIG. 1C, the supernatants were collected, and 14 cytokines were measured by multiplex assay. […] N=4 donors each.
The activity of PVP-179 was confirmed in a 96-well format in both human adult and elderly PBMCs.

[3] = test system: human adult PBMCs; assay: TNF ELISA in human adult PBMCs after TLR8 inhibitor CUCPT-9a; conditions: CUCPT-9a pre-incubation
Method: FIG. 3E: As in FIG. 3D, PBMCs isolated from human adult donors were cultured with 10% autologous plasma and incubated with CUCPT-9a. After inhibition, cells were stimulated with DMSO, TL8-506 (TLR8 specific agonist), LPS (TLR4 agonist; negative control) and different concentrations of PVP-179. Supernatants were harvested after 20-24 hours and analyzed for production of TNF via ELISA. N=6 donors.
Next a TLR8-specific pharmacological inhibitor (CUCPT-9a), which stabilizes the TLR8 dimer in its resting state, was used to inhibit activity downstream of TLR8.

[4] = test system: human monocyte derived dendritic cells; assay: TNF ELISA in human monocyte derived dendritic cells (MoDCs); conditions: 20-24 hours
Method: FIGS. 4A-4D. PVP-179 activates human macrophages and dendritic cells. FIGS. 4A-4B: Murine mononuclear cells were isolated from bone marrow and induced differentiation into dendritic cells (with GM-CSF and IL-4). After 5 days of culturing, these bone-marrow-derived dendritic cells (BMDCs) were stimulated with PVP-179 or MPLA for 18 hours at indicated concentrations. The supernatants were analyzed via ELISA where each dot in the graph represents the mean production of mTNF (FIG. 4A) and mIL-6 (FIG. 4B). N=6 for PVP-179, N=3 for MPLA. Two-way Anova was performed to determine statistical significance. The comparisons shown are compared to control group (0 M PVP-179). FIGS. 4C-4D: PBMCs were isolated from blood of adult human donors. CD14+ monocytes were specifically isolated from the PBMCs and were then cultured in 10% autologous plasma and induced to differentiate into macrophages with M-CSF (FIG. 4C), or dendritic cells with GM-CSF and IL-4 (FIG. 4D). After 5 days, cells were harvested from each differentiated cell type (macrophages: Mφ; dendritic cells: MoDCs) and a 96-well plate was setup with 100,000 cells/well. Cells were then stimulated with indicated concentrations of PVP-179 or R848 (33 μM) or LPS (100 ng/mL). After 20-24 hours of incubation, supernatants were harvested and applied to TNF ELISA. N=2 donors.

T1 sequence (O60603 21-784): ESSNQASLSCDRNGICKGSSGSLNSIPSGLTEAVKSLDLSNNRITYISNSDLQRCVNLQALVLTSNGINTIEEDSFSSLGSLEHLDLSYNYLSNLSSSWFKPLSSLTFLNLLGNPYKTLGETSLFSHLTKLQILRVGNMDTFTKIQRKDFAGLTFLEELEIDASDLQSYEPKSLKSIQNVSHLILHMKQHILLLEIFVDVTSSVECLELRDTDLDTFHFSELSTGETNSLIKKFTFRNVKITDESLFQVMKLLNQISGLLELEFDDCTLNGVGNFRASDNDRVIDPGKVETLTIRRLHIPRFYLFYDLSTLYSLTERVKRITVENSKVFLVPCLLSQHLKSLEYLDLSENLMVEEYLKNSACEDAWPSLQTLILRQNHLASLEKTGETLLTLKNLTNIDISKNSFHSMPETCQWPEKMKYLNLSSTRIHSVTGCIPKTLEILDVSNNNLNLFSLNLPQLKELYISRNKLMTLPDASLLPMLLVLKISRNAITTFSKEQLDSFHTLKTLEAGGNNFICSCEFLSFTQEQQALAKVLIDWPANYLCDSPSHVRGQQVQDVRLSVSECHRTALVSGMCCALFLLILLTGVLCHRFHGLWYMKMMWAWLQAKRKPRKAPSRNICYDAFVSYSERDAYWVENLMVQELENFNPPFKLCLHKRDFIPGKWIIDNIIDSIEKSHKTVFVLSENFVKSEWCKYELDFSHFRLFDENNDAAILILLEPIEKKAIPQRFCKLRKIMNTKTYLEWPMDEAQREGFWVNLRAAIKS

CCCCn1c(/N=C/c2nc3ccccc3n2C)nc2ccccc21 [PVP-179]
NF-κB activity in HEK cells expressing hTLR2 [1]: no activity was detected | production of TNF ([2]; adult PBMCs): concentration-dependent production of TNF | production of TNF ([2]; elderly PBMCs): concentration-dependent production of TNF | PVP-179 induced TNF production after CUCPT-9a [3]: completely blocked | TNF-inducing activity [4]: concentration-dependent activity
